Assay results as given in ChEMBL document CHEMBL1201862, “PubChem BioAssay data set” (2004).
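All cell lines were grown in 96-well plates and treated with compound for 48 hours. At the GI50, growth is halved.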 Active and inactive are the calls of the source. No stated cut-off is given here; in the data, active = GI50 up to about 1.1 µM and inactive = higher.

Experiments:
Test in all cases: inhibition of tumour cell growth, NCI panel, 48 h
[1] = tested on: NCI-H23
[2] = tested on: IGROV-1
[3] = tested on: OVCAR-3
[4] = tested on: COLO 205
[5] = tested on: SF-539
[6] = tested on: SK-MEL-28
[7] = tested on: OVCAR-4
[8] = tested on: OVCAR-5
[9] = tested on: OVCAR-8
[10] = tested on: RXF 393
[11] = tested on: NCI-H460
[12] = tested on: SW-620
[13] = tested on: CCRF-CEM
[14] = tested on: LOX IMVI
[15] = tested on: CAKI-1
[16] = tested on: ACHN
[17] = tested on: SNB-19
[18] = tested on: MDA-MB-231
[19] = tested on: PC-3
[20] = tested on: Hs-578T

Compound	GI50 [1]	GI50 [2]	GI50 [3]	GI50 [4]	GI50 [5]	GI50 [6]	GI50 [7]	GI50 [8]	GI50 [9]	GI50 [10]	GI50 [11]	GI50 [12]	GI50 [13]	GI50 [14]	GI50 [15]	GI50 [16]	GI50 [17]	GI50 [18]	GI50 [19]	GI50 [20]
Cc1ccc(S(=O)(=O)N/N=C/c2oc(-c3cccc([N+](=O)[O-])c3)c(-c3cccc([N+](=O)[O-])c3)c2[N+](=O)[O-])cc1	42.4 µM (inactive)	29.9 µM (inactive)	> 100 µM (inactive)	> 100 µM (inactive)	> 100 µM (inactive)	51.6 µM (inactive)	> 100 µM (inactive)	> 100 µM (inactive)	70.6 µM (inactive)	27 µM (inactive)	> 100 µM (inactive)	37.8 µM (inactive)	19.5 µM (inactive)	16.7 µM (inactive)	> 100 µM (inactive)	45.8 µM (inactive)	67.1 µM (inactive)			
CC[n+]1c(/C=C/c2ccc(N(CCCl)CCCl)cc2)ccc2cc(I)ccc21	1.23 µM (inactive)	0.587 µM (active)	0.553 µM (active)	0.191 µM (active)	0.979 µM (active)	0.912 µM (active)	0.608 µM (active)	1.96 µM (inactive)	0.771 µM (active)	0.839 µM (active)	1.31 µM (inactive)	0.916 µM (active)	0.319 µM (active)	0.766 µM (active)	2 µM (inactive)	2.71 µM (inactive)	0.843 µM (active)			
C[C@]12CC[C@H]3[C@@H](CCC4=CC(=O)C=C[C@@]43O)[C@@H]1CCC2=O	51.5 µM (inactive)	94 µM (inactive)	> 100 µM (inactive)	> 100 µM (inactive)	> 100 µM (inactive)	> 100 µM (inactive)		> 100 µM (inactive)	81.1 µM (inactive)	> 100 µM (inactive)	> 100 µM (inactive)	> 100 µM (inactive)	26.4 µM (inactive)	33.6 µM (inactive)	> 100 µM (inactive)	> 100 µM (inactive)	> 100 µM (inactive)	> 100 µM (inactive)	> 100 µM (inactive)	
O=[N+]([O-])/C(Cl)=C(\NCCN/C(C(Cl)=C(Cl)Cl)=C(/Cl)[N+](=O)[O-])C(Cl)=C(Cl)Cl	28.7 µM (inactive)	62.7 µM (inactive)	16.5 µM (inactive)	36.4 µM (inactive)	> 100 µM (inactive)	57.8 µM (inactive)		> 100 µM (inactive)	40.3 µM (inactive)		49.5 µM (inactive)	47.5 µM (inactive)	27 µM (inactive)	18.8 µM (inactive)	> 100 µM (inactive)	> 100 µM (inactive)	92.9 µM (inactive)	52.1 µM (inactive)	43.6 µM (inactive)	
COC(=O)CSc1nc2[nH]c(SC)c(C(N)=O)c2c(=O)n1-c1ccccc1	> 10 µM (inactive)	> 10 µM (inactive)		> 10 µM (inactive)		> 10 µM (inactive)	> 10 µM (inactive)		> 10 µM (inactive)	> 10 µM (inactive)		> 10 µM (inactive)	> 10 µM (inactive)	> 10 µM (inactive)	> 10 µM (inactive)			> 10 µM (inactive)	> 10 µM (inactive)	
CCCCn1c(C)c(C(=O)OCC)c2cc(OCc3ccc(C(=O)Nn4c(C)ccc4C)cc3)c(Br)cc21	> 100 µM (inactive)	> 100 µM (inactive)	> 100 µM (inactive)	> 100 µM (inactive)	> 100 µM (inactive)	> 100 µM (inactive)	> 100 µM (inactive)	> 100 µM (inactive)	> 100 µM (inactive)		> 100 µM (inactive)	> 100 µM (inactive)	> 100 µM (inactive)	> 100 µM (inactive)	> 100 µM (inactive)	> 100 µM (inactive)	> 100 µM (inactive)		> 100 µM (inactive)	> 100 µM (inactive)
CCSC1=C(C)N(/C=N/C(C)(C)C)CC1	> 100 µM (inactive)	> 100 µM (inactive)	> 100 µM (inactive)	> 100 µM (inactive)	> 100 µM (inactive)	> 100 µM (inactive)	> 100 µM (inactive)	> 100 µM (inactive)	> 100 µM (inactive)	> 100 µM (inactive)	> 100 µM (inactive)	20.5 µM (inactive)	> 100 µM (inactive)	89.1 µM (inactive)	> 100 µM (inactive)	> 100 µM (inactive)	> 100 µM (inactive)			
O=C(/C=C\c1cccc2ccccc12)c1cccc2ccccc12	5.93 µM (inactive)	8.17 µM (inactive)	7.91 µM (inactive)	> 10 µM (inactive)	14.3 µM (inactive)	8.17 µM (inactive)	6.37 µM (inactive)	> 10 µM (inactive)	5.82 µM (inactive)	5 µM (inactive)	8.65 µM (inactive)	3.37 µM (inactive)	3.3 µM (inactive)	5.61 µM (inactive)	8.07 µM (inactive)	11.6 µM (inactive)	10.6 µM (inactive)			
CCN(CC)CCNC(=O)c1nn(C)c(=S)[nH]c1=S	> 100 µM (inactive)	> 100 µM (inactive)	> 100 µM (inactive)	> 100 µM (inactive)	> 100 µM (inactive)	> 100 µM (inactive)	> 100 µM (inactive)	> 100 µM (inactive)	> 100 µM (inactive)	> 100 µM (inactive)	> 100 µM (inactive)	> 100 µM (inactive)	> 100 µM (inactive)	> 100 µM (inactive)	> 100 µM (inactive)	> 100 µM (inactive)	> 100 µM (inactive)			
COC(=O)C1=C(C(=O)OC)C23CC4CCC2(C(=O)C1O3)C4(C)C (stereo not drawn)	> 100 µM (inactive)	> 100 µM (inactive)	> 100 µM (inactive)	> 100 µM (inactive)	> 100 µM (inactive)	> 100 µM (inactive)	> 100 µM (inactive)	> 100 µM (inactive)	> 100 µM (inactive)	58.5 µM (inactive)	> 100 µM (inactive)	78.3 µM (inactive)	22.1 µM (inactive)	84.5 µM (inactive)	> 100 µM (inactive)	> 100 µM (inactive)	> 100 µM (inactive)			
CCOc1ccccc1NC(=O)C1=C(C)NC(C)=C(C(=O)Nc2ccccc2OCC)C1c1ccc(NC(C)=O)cc1	31 µM (inactive)	47.4 µM (inactive)	45.3 µM (inactive)	16.7 µM (inactive)	41.7 µM (inactive)	73.8 µM (inactive)	43.8 µM (inactive)	33.6 µM (inactive)	73.5 µM (inactive)	20.8 µM (inactive)	35.7 µM (inactive)	35.6 µM (inactive)	61.4 µM (inactive)	38.9 µM (inactive)	17.2 µM (inactive)	22.4 µM (inactive)	96.2 µM (inactive)			
CCCc1c(C(=O)OCC)[nH]c(-c2ccc(-c3[nH]c(C(=O)OCC)c(CCC)c3C(=O)OCC)s2)c1C(=O)OCC	28.2 µM (inactive)	58.2 µM (inactive)	31.6 µM (inactive)	> 100 µM (inactive)	41 µM (inactive)	95.5 µM (inactive)	18.4 µM (inactive)	86.3 µM (inactive)	48 µM (inactive)	5.38 µM (inactive)	37 µM (inactive)	> 100 µM (inactive)	> 100 µM (inactive)	18.1 µM (inactive)	39.7 µM (inactive)	34.8 µM (inactive)	78.3 µM (inactive)			
O=C1Oc2cc3c(c4cccc1c24)OCN(c1ccc(Cl)cc1)C3	18.8 µM (inactive)	> 100 µM (inactive)	12 µM (inactive)	7.82 µM (inactive)	4.46 µM (inactive)	> 49.2 µM (inactive)	28.1 µM (inactive)	> 35.8 µM (inactive)	11.7 µM (inactive)	> 52.7 µM (inactive)	2.31 µM (inactive)	7.4 µM (inactive)	9.23 µM (inactive)	0.176 µM (active)	38.8 µM (inactive)	3.13 µM (inactive)	47.8 µM (inactive)			
N#CC(NNC(=O)c1ccccc1O)c1ccccc1 (stereo not drawn)	1.72 µM (inactive)	1.13 µM (inactive)	3.12 µM (inactive)	33.7 µM (inactive)	3.33 µM (inactive)	> 100 µM (inactive)	3.85 µM (inactive)	22.1 µM (inactive)	2.81 µM (inactive)	1.03 µM (active)	0.646 µM (active)	8.02 µM (inactive)	0.855 µM (active)	2.9 µM (inactive)	2.91 µM (inactive)	0.479 µM (active)				
O=S1(=O)c2ccccc2Oc2ccc(C(/C=N/O)=N/O)cc21		29.2 µM (inactive)	12.3 µM (inactive)	> 100 µM (inactive)	26 µM (inactive)	56.8 µM (inactive)	39.1 µM (inactive)	> 100 µM (inactive)	18.4 µM (inactive)	15.5 µM (inactive)	27.9 µM (inactive)		25.8 µM (inactive)	19.8 µM (inactive)	16.5 µM (inactive)	38.6 µM (inactive)		45.5 µM (inactive)	32.5 µM (inactive)	
ClCCCN1CCCCC1CCl (stereo not drawn)	65.3 µM (inactive)	> 100 µM (inactive)	> 100 µM (inactive)	> 100 µM (inactive)	> 100 µM (inactive)	> 100 µM (inactive)	> 100 µM (inactive)	> 100 µM (inactive)	> 100 µM (inactive)	> 100 µM (inactive)	10.2 µM (inactive)	> 100 µM (inactive)	20.9 µM (inactive)	> 100 µM (inactive)	26.7 µM (inactive)	48.6 µM (inactive)	> 100 µM (inactive)			
